Assay results as given in ChEMBL document CHEMBL5465560, “Selectivity Literature for EUbOPEN Chemogenomic Library” (2024).

Assays:
[1] = biological target: Serine/threonine-protein kinase N2 (Homo sapiens, UniProt Q16513); assay: Selectivity interaction (Kinase panel (literature)) EUB0001199aCl PKN2; settings: at 1 µM
[2] = biological target: Insulin receptor-related protein (Homo sapiens) (UniProt P14616); settings: at 10 µM
[3] = biological target: T1, Calcium/calmodulin-dependent protein kinase type IV (Homo sapiens) (UniProt Q16566); settings: at 10 µM
T1 sequence (whole entry): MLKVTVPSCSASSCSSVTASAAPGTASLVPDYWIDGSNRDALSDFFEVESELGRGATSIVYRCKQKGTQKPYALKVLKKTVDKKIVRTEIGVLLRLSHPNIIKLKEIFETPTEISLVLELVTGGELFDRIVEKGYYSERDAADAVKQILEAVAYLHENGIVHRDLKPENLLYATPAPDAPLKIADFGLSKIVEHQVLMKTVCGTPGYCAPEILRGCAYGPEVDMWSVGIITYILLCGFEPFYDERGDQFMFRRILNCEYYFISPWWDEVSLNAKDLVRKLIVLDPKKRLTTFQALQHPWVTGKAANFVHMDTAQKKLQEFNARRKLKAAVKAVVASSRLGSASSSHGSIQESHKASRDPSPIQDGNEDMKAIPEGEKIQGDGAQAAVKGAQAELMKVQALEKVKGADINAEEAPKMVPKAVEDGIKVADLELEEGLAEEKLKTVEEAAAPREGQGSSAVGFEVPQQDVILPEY

Ephrin type-A receptor 4 = Ephrin type-A receptor 4 (Homo sapiens, UniProt P54764); settings: at 10 µM
[4] = biological target: Cyclin-dependent kinase 2 (Homo sapiens, UniProt P24941); assay: Selectivity interaction (KinomeScan (DiscoverX)) EUB0000618a CDK2; settings: at 10 µM
[5] = biological target: Serine/threonine-protein kinase pim-3 (Homo sapiens) (UniProt Q86V86); assay: Selectivity interaction (KinomeScan (DiscoverX)) EUB0000618a PIM3; settings: at 10 µM
[6] = biological target: T2, Ephrin type-A receptor 8 (Homo sapiens) (UniProt P29322); settings: at 10 µM
T2 sequence (whole entry): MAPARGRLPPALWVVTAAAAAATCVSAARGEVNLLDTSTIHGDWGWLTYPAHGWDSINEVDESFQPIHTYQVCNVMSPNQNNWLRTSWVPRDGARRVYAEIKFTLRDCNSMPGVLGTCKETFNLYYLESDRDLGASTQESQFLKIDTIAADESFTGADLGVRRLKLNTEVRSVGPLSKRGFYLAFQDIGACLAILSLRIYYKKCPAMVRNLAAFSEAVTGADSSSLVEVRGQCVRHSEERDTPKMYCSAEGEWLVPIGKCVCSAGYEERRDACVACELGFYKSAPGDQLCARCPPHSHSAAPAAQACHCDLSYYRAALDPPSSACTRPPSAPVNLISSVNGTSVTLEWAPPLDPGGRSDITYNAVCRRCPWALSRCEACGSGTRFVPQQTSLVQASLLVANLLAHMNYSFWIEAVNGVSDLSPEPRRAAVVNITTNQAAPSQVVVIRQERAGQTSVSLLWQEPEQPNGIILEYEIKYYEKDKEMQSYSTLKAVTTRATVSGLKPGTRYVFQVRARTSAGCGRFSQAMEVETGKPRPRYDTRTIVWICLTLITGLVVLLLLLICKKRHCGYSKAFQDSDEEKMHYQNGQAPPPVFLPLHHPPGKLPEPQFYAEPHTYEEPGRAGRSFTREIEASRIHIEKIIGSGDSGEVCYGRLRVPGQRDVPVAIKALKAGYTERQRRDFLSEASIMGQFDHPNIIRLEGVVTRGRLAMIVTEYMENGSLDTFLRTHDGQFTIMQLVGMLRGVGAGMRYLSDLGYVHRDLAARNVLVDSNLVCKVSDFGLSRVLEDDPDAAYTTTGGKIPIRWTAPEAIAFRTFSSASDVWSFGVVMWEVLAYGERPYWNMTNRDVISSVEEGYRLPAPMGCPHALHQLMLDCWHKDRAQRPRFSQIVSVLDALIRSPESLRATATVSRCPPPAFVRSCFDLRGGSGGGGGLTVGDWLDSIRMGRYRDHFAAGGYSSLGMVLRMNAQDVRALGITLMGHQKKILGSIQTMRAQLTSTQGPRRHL

[7] = biological target: T3, Dual serine/threonine and tyrosine protein kinase (Homo sapiens) (UniProt Q6XUX3); assay: Selectivity interaction (KinomeScan (DiscoverX)) EUB0001619a DSTYK; settings: at 1 µM
T3 sequence (whole entry): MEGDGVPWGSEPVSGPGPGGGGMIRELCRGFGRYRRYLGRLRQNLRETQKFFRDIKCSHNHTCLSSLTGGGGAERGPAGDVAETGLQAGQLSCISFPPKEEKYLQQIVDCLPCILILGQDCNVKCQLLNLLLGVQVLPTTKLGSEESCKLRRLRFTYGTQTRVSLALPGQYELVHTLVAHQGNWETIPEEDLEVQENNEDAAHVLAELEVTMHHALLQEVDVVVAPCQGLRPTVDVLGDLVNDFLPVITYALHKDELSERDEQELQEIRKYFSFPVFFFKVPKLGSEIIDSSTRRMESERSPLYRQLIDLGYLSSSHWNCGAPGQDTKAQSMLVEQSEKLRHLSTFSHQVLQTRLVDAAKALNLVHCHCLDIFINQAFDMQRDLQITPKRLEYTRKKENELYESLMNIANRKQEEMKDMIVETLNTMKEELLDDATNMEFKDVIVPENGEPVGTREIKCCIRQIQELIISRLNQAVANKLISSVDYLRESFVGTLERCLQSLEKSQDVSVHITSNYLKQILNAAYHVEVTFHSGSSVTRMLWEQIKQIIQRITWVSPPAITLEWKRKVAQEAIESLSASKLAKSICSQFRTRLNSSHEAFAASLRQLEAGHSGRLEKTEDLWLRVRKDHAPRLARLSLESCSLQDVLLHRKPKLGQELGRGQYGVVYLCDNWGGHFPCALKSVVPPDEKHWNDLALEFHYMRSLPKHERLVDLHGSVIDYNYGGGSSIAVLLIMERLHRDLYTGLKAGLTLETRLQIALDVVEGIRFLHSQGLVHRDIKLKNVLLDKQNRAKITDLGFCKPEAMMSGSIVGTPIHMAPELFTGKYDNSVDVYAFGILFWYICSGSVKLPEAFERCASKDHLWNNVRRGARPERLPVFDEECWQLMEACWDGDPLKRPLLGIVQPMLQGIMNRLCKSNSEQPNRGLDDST

Chain of Insulin receptor-related protein (Homo sapiens) (P14616 27-742 limits assumed): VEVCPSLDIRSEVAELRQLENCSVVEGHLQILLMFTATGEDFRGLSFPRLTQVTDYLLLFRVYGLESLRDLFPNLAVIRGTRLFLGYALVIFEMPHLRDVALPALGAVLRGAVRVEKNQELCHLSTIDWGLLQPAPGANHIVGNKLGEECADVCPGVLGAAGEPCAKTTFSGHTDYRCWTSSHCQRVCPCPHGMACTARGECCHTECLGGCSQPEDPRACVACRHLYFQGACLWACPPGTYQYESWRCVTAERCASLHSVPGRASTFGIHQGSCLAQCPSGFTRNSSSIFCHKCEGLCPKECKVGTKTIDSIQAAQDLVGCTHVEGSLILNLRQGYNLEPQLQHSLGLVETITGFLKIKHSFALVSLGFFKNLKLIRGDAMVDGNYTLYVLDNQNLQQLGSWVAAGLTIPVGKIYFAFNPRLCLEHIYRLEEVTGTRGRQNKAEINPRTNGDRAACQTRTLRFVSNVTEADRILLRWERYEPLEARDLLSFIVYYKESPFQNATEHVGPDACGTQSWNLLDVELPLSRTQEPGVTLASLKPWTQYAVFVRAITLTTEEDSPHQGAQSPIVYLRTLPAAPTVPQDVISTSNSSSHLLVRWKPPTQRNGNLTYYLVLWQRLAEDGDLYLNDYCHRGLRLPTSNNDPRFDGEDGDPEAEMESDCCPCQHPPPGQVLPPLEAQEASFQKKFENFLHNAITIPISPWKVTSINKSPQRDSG
Chain of Insulin receptor-related protein (Homo sapiens) (P14616 747-1297 limits assumed): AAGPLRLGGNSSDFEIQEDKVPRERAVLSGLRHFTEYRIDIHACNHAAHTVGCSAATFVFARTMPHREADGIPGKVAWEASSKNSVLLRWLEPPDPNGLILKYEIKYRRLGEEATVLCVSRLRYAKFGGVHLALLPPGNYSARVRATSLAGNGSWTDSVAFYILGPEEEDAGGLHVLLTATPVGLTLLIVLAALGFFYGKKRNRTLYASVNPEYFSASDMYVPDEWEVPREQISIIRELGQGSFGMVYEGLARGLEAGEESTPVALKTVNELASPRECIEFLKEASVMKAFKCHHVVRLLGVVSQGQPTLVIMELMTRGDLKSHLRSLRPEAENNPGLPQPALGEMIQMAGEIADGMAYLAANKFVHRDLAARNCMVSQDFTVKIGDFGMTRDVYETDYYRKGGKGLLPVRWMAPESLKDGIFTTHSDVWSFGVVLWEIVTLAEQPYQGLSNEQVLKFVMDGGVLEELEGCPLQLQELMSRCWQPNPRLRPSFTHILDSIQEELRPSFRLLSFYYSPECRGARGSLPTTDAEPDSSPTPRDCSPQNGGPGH
Chain of Ephrin type-A receptor 4 (P54764 whole entry): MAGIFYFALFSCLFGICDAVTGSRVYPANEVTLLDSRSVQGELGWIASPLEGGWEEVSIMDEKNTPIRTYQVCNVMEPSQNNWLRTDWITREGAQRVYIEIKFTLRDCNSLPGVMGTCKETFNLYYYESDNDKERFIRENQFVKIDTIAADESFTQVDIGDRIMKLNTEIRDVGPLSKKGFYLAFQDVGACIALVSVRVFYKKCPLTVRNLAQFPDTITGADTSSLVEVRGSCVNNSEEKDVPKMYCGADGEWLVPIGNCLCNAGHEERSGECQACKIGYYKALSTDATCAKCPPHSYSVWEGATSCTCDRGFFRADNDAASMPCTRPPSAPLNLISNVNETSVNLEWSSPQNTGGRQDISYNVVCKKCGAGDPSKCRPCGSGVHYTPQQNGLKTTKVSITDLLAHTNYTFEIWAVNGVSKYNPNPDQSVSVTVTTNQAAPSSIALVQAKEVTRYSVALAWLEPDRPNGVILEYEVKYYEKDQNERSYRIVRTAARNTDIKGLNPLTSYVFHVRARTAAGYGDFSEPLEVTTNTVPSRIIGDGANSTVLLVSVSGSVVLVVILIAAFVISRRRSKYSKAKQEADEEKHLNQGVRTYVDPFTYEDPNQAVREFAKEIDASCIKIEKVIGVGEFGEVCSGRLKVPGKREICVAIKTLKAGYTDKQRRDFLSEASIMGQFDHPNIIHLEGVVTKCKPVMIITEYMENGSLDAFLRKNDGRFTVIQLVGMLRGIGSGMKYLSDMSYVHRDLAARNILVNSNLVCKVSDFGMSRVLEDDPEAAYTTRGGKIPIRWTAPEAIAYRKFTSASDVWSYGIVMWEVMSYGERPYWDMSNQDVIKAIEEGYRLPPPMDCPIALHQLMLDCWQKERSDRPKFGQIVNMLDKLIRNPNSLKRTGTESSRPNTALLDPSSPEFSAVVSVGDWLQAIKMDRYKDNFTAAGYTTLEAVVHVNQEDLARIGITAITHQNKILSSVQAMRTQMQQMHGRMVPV
Chain of Serine/threonine-protein kinase N2 (Q16513 whole entry, looked up): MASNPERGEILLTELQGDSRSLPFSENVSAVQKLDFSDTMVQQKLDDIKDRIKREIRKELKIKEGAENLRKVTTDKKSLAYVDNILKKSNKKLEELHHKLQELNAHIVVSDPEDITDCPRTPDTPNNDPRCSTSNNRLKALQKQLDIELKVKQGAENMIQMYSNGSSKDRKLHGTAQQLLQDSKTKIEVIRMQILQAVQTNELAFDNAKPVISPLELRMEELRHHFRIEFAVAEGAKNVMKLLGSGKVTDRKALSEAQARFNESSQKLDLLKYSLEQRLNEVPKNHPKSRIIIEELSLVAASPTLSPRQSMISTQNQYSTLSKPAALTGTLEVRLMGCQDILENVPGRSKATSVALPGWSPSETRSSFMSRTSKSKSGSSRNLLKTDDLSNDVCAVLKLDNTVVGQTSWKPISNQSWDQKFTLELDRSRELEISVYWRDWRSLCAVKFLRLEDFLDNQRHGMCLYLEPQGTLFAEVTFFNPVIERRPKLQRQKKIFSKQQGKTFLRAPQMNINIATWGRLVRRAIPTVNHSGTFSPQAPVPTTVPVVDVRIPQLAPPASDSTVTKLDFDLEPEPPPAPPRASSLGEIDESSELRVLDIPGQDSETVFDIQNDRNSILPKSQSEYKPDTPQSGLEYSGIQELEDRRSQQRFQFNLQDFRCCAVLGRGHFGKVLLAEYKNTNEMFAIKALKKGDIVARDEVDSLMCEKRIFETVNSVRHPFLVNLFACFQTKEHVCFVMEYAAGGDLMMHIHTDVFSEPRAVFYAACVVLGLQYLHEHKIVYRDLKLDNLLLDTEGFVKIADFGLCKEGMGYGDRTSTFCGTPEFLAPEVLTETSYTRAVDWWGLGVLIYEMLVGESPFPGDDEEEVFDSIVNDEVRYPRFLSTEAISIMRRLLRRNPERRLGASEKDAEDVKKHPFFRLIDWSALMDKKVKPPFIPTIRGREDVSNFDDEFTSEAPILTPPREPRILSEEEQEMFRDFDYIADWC

SMILES: CN1Cc2nccc(-c3cn(C)nc3-c3ccc(F)cc3)c2C1=O
- % of inhibition [1]: 2%

SMILES: CCN(CC)CCCCNc1ncc2cc(-c3cc(OC)cc(OC)c3)c(NC(=O)NC(C)(C)C)nc2n1
- % of control [2]: 100%
- % of control [3]: 100%

SMILES: COCC(=O)NC/C=C/c1ccc2ncnc(Nc3ccc(Oc4ccc(C)nc4)c(C)c3)c2c1 [CP-724714]
- % of control (Ephrin type-A receptor 4): 98%

SMILES: O[C@H]1CC[C@H](Nc2ncc3nc(Nc4c(F)cc(F)cc4F)n([C@H]4CCOC4)c3n2)CC1
- % of control [4]: 100%
- % of control [5]: 100%

SMILES: Cc1cc([C@@H](C)Nc2ccccc2C(=O)O)c2nc(N3CCOCC3)cc(=O)n2c1 [AZD-6482]
- % of control [6]: 96%

SMILES: N#Cc1cccc(-c2c[nH]c3ncnc(N4CCOCC4)c23)c1
- % of control [7]: 91%
